Marks after values point to notes of the source that are not given here.
How the values were obtained:
[1] = tested on: gastric mucosa; test: acute bisphosphonate/indomethacin gastric injury model of Blank et al. (gastric lesion score, gastric bleeding); assay type: in vivo, rat; conditions: for Gastric Lesion Score (lesioned area, mm^2) / order of gastrotoxicity (FIG. 4): rats; for Gastric Lesion Score (lesioned area, mm^2): Indo 40 mg/kg, pamidronate 300 mg/kg, PC-pamidronate 1:1 weight ratio, n = 4-5 rats/group; for order of gastrotoxicity (FIG. 4): comparison of three bisphosphonates
Text: (§1) The experiments investigated the effects of different bisphosphonates on the surface hydrophobicity and phospholipid concentration of the antral mucosa, using the animal model of Blank et. al. (Blank M A, Ems B L, Gibson G W, Myers W R, Berman S K, Phipps R J, Smith P N, Dig Dis Sci, 42, 281-288 (1997)), and compared the effects of these surface changes to the gastric toxicity of these drugs.
Looking at FIG. 2, an antrum lesion score is plotted against time.
The model and the ability for phospholipids to inhibit bisphosphonate GI toxicity was investigated in pilot preclinical studies using the rodent model of Blank et. al. (Blank M A, Ems B L, Gibson G W, Myers W R, Berman S K, Phipps R J, Smith P N, Dig Dis Sci, 42, 281-288 (1997)), where the bisphosphonate test drug was administered simultaneously with indomethacin.
60 mg of Phospholipon 90G (90-93% pure PC) was dissolved in chloroform in a tube. […] The organic solvent was removed under nitrogen and resulting PC material was left under vacuum overnight to form a PC film in the tube. […] The solution was then added to the dried PC film in the tube. The mixture was sonicated in a both type sonicator at room temperature for 5 min., prior to administration to fasted rats.
20 mg of dipalmitoyl PC (DPPC) and Phospholipon 90 G were dissolved in chloroform in separate tubes, and dried as described in Example 1.
60 mg and 240 mg of Phospholipon 90G were dissolved in chloroform and dried as described in Example 1 in separate tubes.

[2] = tested on: gastric mucosa; conditions: rats, intragastric high doses, with indomethacin; cited from earlier work
[3] = healthy subjects, up to 2 weeks, 40 mg or 10 mg; cited from earlier work
[4] = tested on: mucosae of the gastric body and antrum; conditions: increasing doses over a 4 week period in rats; macroscopic and histological; cited from earlier work
[5] = tested on: aspirin-induced gastric erosions; conditions: 10 mg and 40 mg doses; cited from earlier work
[6] = tested on: experimentally induced gastric ulcers; conditions: rats; cited from earlier work
[7] = tested on: gastric mucosa; test: surface hydrophobicity and phospholipid (PC) concentration of the antral/gastric mucosa
Text: as §1

[8] = tested on: gastric mucosa; test: histological studies of gastric mucosa; conditions: rat, in vivo

With `COc1ccc2c(c1)c(CC(=O)O)c(C)n2C(=O)c1ccc(Cl)cc1` [Indomethacin] the “Gastric Lesion Score (lesioned area, mm^2)” value [1] was 0 ± 0 mm^2.
In the case of `NCCC(O)(P(=O)(O)O)P(=O)(O)O` [Pamidronate, 3-amino-1-hydroxypropylidene-1,1-bisphosphonic acid], the “irritation of the gastric mucosa (comparison of bisphosphonates)” value [2] is listed as “more irritating”, the “gastric lesions (antrum lesion score, FIG. 2)” value ([1]; rat stomach, over a 4 hr period, in combination with indomethacin) is listed as “induced lesions in both the antrum and body of the rat stomach” and the “order of gastrotoxicity (FIG. 4)” value [1] is listed as “pamidronate>>alendronate>risedronate”. For the same compound, the “Gastric Lesion Score (lesioned area, mm^2)” value [1] was 62 ± 11* mm^2.
For `NCCCC(O)(P(=O)(O)O)P(=O)(O)O` [alendronate, 4-amino-1-hydroxybutylidene-1,1-bisphosphonic acid], the “volunteers who developed one or more gastric ulcers” value [3] is listed as 10-20%, the “volunteers with observable gastric erosions” value [3] is listed as 40-60% and the “injurious effect on mucosae of the gastric body and antrum” value (“injurious effect on mucosae” for short) [4] is listed as “dose-dependent injurious effect”. For the same compound, the “rate of healing of aspirin-induced gastric erosions” value [5] was “significantly retarded”, the “healing of experimentally induced gastric ulcers” value [6] was “significantly delayed the healing” and the “order of ability to attenuate the stomach's hydrophobic phospholipid barrier property (FIG. 5)” value ([7]; rat, in vivo) was “pamidronate>>alendronate>risedronate”.
In the case of `CC(O)(P(=O)(O)O)P(=O)(O)O` [etidronate, 1-hydroxyethylidene-1,1-bisphosphonic acid], the “injurious effect on mucosae” value [4] is given as “dose-dependent injurious effect”.
For `O=P(O)(O)C(O)(Cc1cccnc1)P(=O)(O)O` [risedronate, I-hydroxy-2-(3-pyridyl) ethylidene-1,(3-pyridyl) ethylidene-1,1-bisphosphonic acid], the “surface injury to the gastric mucosa (histology)” value [8] is listed as “induced some surface injury”, the “order of gastrotoxicity (FIG. 4)” value [1] is listed as “pamidronate>>alendronate>risedronate” and the “injurious effect on mucosae” value [4] is listed as “dose-dependent injurious effect”. For the same compound, the “order of ability to attenuate the stomach's hydrophobic phospholipid barrier property (FIG. 5)” value ([7]; same order as gastrotoxicity maintained) was “pamidronate>>alendronate>risedronate”.
